# Patent US20250002507A1, “7,8-DIHYDRO-5H-1,6-NAPHTHYRIDINE DERIVATIVES AS POSITIVE ALLOSTERIC MODULATORS OF THE MUSCARINIC ACETYLCHOLINE RECEPTOR M4 FOR TREATING NEUROLOGICAL AND PSYCHIATRIC DISORDERS” (Vanderbilt University, priority 2021, published 2025)
# pEC50: −log10 of the molar value.
# Target: T1, Human M4 (Homo sapiens, UniProt P08173)
# T1 construct: expressed in transfected cells
# T1 sequence (P08173 1-479): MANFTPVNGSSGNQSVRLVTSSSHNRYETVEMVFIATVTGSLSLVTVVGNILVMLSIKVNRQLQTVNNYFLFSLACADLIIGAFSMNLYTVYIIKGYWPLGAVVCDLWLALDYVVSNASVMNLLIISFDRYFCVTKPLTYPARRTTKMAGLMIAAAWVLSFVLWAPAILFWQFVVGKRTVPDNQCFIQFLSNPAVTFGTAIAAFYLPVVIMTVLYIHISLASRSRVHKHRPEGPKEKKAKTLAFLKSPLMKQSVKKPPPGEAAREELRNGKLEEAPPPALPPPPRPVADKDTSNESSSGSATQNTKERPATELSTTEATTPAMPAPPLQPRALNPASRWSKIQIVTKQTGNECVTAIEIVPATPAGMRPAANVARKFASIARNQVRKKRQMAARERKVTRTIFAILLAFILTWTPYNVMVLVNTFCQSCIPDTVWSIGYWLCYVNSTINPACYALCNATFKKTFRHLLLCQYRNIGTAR
# Test: mAChR M4 cell-based functional assay (calcium flux, potentiation of EC20 acetylcholine response), hM4-Gqi5 CHO-K1 cells
# Conditions: Table 4; for Emax at 30 µM: CHO-K1, Human M4, % ACh maximum at 30 μM, read-out: Emax (% ACh maximum at 30 μM); for pEC50: potentiation of EC20 acetylcholine response, calcium flux, CHO-K1 cells, read-out: Human M4 EC50
# Summary of the method: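 CHO-K1 cells stably expressing human M4 with chimeric Gqi5, loaded with Fluo-4 AM 50 min at 37 °C; calcium flux read by FDSS. 11-point 1:3 compound curves added, then EC20 acetylcholine at 144 s; potentiation of the EC20 response fitted by four-parameter logistic to give EC50 and Emax.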
SMILES,Emax at 30 µM,pEC50
"Cc1cc2nnc(C(F)(F)F)n2nc1N1CCc2ncc(N3CCOc4ncccc43)cc2C1 [Compound 324, 1-(6-(7-methyl-3-(trifluoromethyl)-[1,2,4]triazolo[4,3-b]pyridazin-6-yl)-5,6,7,8-tetrahydro-1,6-naphthyridin-3-yl)-2,3-dihydro-1H-pyrido[2,3-b][1,4]oxazine]",111%,6.82
"Cc1cc2nnc(C(F)(F)F)n2nc1N1CCc2ncc(N3CCCn4nccc43)cc2C1 [Compound 325, 3-(6,7-dihydropyrazolo[1,5-a]pyrimidin-4(5H)-yl)-6-(7-methyl-3-(trifluoromethyl)-[1,2,4]triazolo[4,3-b]pyridazin-6-yl)-5,6,7,8-tetrahydro-1,6-naphthyridine]",116%,7.30
"Cc1cc2nnc(C(F)(F)F)n2nc1N1CCc2ncc(N3CCOC(c4ccccn4)C3)cc2C1 (stereo not shown) [Compound 326, 4-(6-(7-methyl-3-(trifluoromethyl)-[1,2,4]triazolo[4,3-b]pyridazin-6-yl)-5,6,7,8-tetrahydro-1,6-naphthyridin-3-yl)-2-(pyridin-2-yl)morpholine]",62%,5.68
"Cc1c(N2CCc3ncc(N4CCOC(c5ccccn5)C4)cc3C2)nn2c(C(F)(F)F)nnc2c1C (stereo not shown) [Compound 327, 4-(6-(7,8-dimethyl-3-(trifluoromethyl)-[1,2,4]triazolo[4,3-b]pyridazin-6-yl)-5,6,7,8-tetrahydro-1,6-naphthyridin-3-yl)-2-(pyridin-2-yl)morpholine]",68%,5.88
"Cc1c(N2CCc3ncc(N4CCOC(c5cccnc5)C4)cc3C2)nn2c(C(F)(F)F)nnc2c1C (stereo not shown) [Compound 328, 4-(6-(7,8-dimethyl-3-(trifluoromethyl)-[1,2,4]triazolo[4,3-b]pyridazin-6-yl)-5,6,7,8-tetrahydro-1,6-naphthyridin-3-yl)-2-(pyridin-3-yl)morpholine]",76%,6.21
"Cc1cc2nnc(C(F)(F)F)n2nc1N1CCc2ncc(N3CCOC(c4cccnc4)C3)cc2C1 (stereo not shown) [Compound 329, 4-(6-(7-methyl-3-(trifluoromethyl)-[1,2,4]triazolo[4,3-b]pyridazin-6-yl)-5,6,7,8-tetrahydro-1,6-naphthyridin-3-yl)-2-(pyridin-3-yl)morpholine]",80%,5.83
"Cc1cc2nncn2nc1N1Cc2cc(N3CCOCC3)cnc2C(C)C1 (stereo not shown) [Compound 330, 4-(8-methyl-6-(7-methyl-[1,2,4]triazolo[4,3-b]pyridazin-6-yl)-5,6,7,8-tetrahydro-1,6-naphthyridin-3-yl)morpholine]",83%,5.67
"Cc1c(N2Cc3cc(N4CCOCC4)cnc3C(C)C2)nn2cnnc2c1C (stereo not shown) [Compound 331, 4-(6-(7,8-dimethyl-[1,2,4]triazolo[4,3-b]pyridazin-6-yl)-8-methyl-5,6,7,8-tetrahydro-1,6-naphthyridin-3-yl)morpholine]",94%,6.15
"Cc1cc2nncn2nc1N1CCc2ncc(N3CCN(C)C(=O)C3)cc2C1 [Compound 332, 1-methyl-4-(6-(7-methyl-[1,2,4]triazolo[4,3-b]pyridazin-6-yl)-5,6,7,8-tetrahydro-1,6-naphthyridin-3-yl)piperazin-2-one]",71%,5.59
"Cc1c(N2CCc3ncc(N4CCN(C)C(=O)C4)cc3C2)nn2cnnc2c1C [Compound 333, 4-(6-(7,8-dimethyl-[1,2,4]triazolo[4,3-b]pyridazin-6-yl)-5,6,7,8-tetrahydro-1,6-naphthyridin-3-yl)-1-methylpiperazin-2-one]",52%,5.87
"Cc1cc2nncn2nc1N1CCc2ncc(CC(F)(F)F)cc2C1 [Compound 334, 6-(7-methyl-[1,2,4]triazolo[4,3-b]pyridazin-6-yl)-3-(2,2,2-trifluoroethyl)-5,6,7,8-tetrahydro-1,6-naphthyridine]",74%,6.63
"Cc1cc2nncn2nc1N1CCc2ncc(C(C)(O)C(F)(F)F)cc2C1 (stereo not shown) [Compound 335, 1,1,1-trifluoro-2-(6-(7-methyl-[1,2,4]triazolo[4,3-b]pyridazin-6-yl)-5,6,7,8-tetrahydro-1,6-naphthyridin-3-yl)propan-2-ol]",77%,5.77
"CCOC(=O)c1c(C)nc2cc(C)c(N3CCc4ncc(N5CCCn6nccc65)cc4C3)nn12 [Compound 336, ethyl 6-(3-(6,7-dihydropyrazolo[1,5-a]pyrimidin-4(5H)-yl)-7,8-dihydro-1,6-naphthyridin-6(5H)-yl)-2,7-dimethylimidazo[1,2-b]pyridazine-3-carboxylate]",72%,6.44
"CCOC(=O)c1c(C)nc2cc(C)c(N3CCc4ncc(C(F)(F)F)cc4C3)nn12 [Compound 337, ethyl 2,7-dimethyl-6-(3-(trifluoromethyl)-7,8-dihydro-1,6-naphthyridin-6(5H)-yl)imidazo[1,2-b]pyridazine-3-carboxylate]",61%,5.79
"FC(F)(F)c1cnc2c(c1)CN(c1nn3c(C(F)(F)F)nnc3c3ccccc13)CC2 [Compound 338, 3-(trifluoromethyl)-6-(3-(trifluoromethyl)-7,8-dihydro-1,6-naphthyridin-6(5H)-yl)-[1,2,4]triazolo[3,4-a]phthalazine]",84%,5.27
"CCOC(=O)c1c(C)nc2c(C)c(C)c(N3CCc4ncc(C(F)(F)F)cc4C3)nn12 [Compound 339, Ethyl 2,7,8-trimethyl-6-(3-(trifluoromethyl)-7,8-dihydro-1,6-naphthyridin-6(5H)-yl)imidazo[1,2-b]pyridazine-3-carboxylate]",67%,5.72
"Cc1cc2cncn2nc1N1CCc2ncc(C(F)(F)F)cc2C1 [Compound 340, 6-(3-methylimidazo[1,5-b]pyridazin-2-yl)-3-(trifluoromethyl)-5,6,7,8-tetrahydro-1,6-naphthyridine]",84%,6.37
"Cc1cc2cnc(C)n2nc1N1CCc2ncc(C(F)(F)F)cc2C1 [Compound 341, 6-(3,7-dimethylimidazo[1,5-b]pyridazin-2-yl)-3-(trifluoromethyl)-5,6,7,8-tetrahydro-1,6-naphthyridine]",63%,6.28
"Cc1cc2cncn2nc1N1CCc2ncc(-c3cn(C)nc3C)cc2C1 [Compound 342, 3-(1,3-dimethyl-1H-pyrazol-4-yl)-6-(3-methylimidazo[1,5-b]pyridazin-2-yl)-5,6,7,8-tetrahydro-1,6-naphthyridine]",81%,6.31
"c1cc2n(n1)CCCN2c1cnc2c(c1)CN(c1nn3cnnc3c3c1CCCC3)CC2 [Compound 344, 6-(3-(6,7-dihydropyrazolo[1,5-a]pyrimidin-4(5H)-yl)-7,8-dihydro-1,6-naphthyridin-6(5H)-yl)-7,8,9,10-tetrahydro-[1,2,4]triazolo[3,4-a]phthalazine]",73%,6.26
"FC(F)(F)c1cnc2c(c1)CN(c1nn3cnnc3c3c1CCCC3)CC2 [Compound 345, 6-(3-(trifluoromethyl)-7,8-dihydro-1,6-naphthyridin-6(5H)-yl)-7,8,9,10-tetrahydro-[1,2,4]triazolo[3,4-a]phthalazine]",63%,5.84
"Cc1c(C2CC2)c(N2CCc3ncc(C(F)(F)F)cc3C2)nn2cnnc12 [Compound 346, 6-(7-Cyclopropyl-8-methyl-[1,2,4]triazolo[4,3-b]pyridazin-6-yl)-3-(trifluoromethyl)-5,6,7,8-tetrahydro-1,6-naphthyridine]",70%,5.68
"Cc1ccc(-c2cnc3c(c2)CN(c2nn4cnnc4c(C)c2C2CC2)CC3)cn1 [Compound 347, 6-(7-cyclopropyl-8-methyl-[1,2,4]triazolo[4,3-b]pyridazin-6-yl)-3-(6-methylpyridin-3-yl)-5,6,7,8-tetrahydro-1,6-naphthyridine]",61%,6.10
"Cc1c(C2CC2)c(N2CCc3ncc(N4CCO[C@H](C)C4)cc3C2)nn2cnnc12 [Compound 348, (R)-4-(6-(7-cyclopropyl-8-methyl-[1,2,4]triazolo[4,3-b]pyridazin-6-yl)-5,6,7,8-tetrahydro-1,6-naphthyridin-3-yl)-2-methylmorpholine]",66%,5.73
"COCc1c(N2CCc3ncc(C(F)(F)F)cc3C2)nn2cnnc2c1C [Compound 349, 6-(7-(Methoxymethyl)-8-methyl-[1,2,4]triazolo[4,3-b]pyridazin-6-yl)-3-(trifluoromethyl)-5,6,7,8-tetrahydro-1,6-naphthyridine]",106%,7.03
"COCc1c(C)c(N2CCc3ncc(C(F)(F)F)cc3C2)nn2cnnc12 [Compound 350, 6-(8-(Methoxymethyl)-7-methyl-[1,2,4]triazolo[4,3-b]pyridazin-6-yl)-3-(trifluoromethyl)-5,6,7,8-tetrahydro-1,6-naphthyridine]",77%,5.29
